# Data as given in patent US8580856B2, “Acetaminophen/ibuprofen combinations and method for their use” (McNeil-PPC, Inc., priority 2006, dated 2013).
# Test system: CO2-laser-induced painful stimulus on UV(B) irradiated skin
# Assay: Laser somatosensory evoked potentials (LSEP) analgesia study, peak-to-peak amplitude
# Format: in vivo, human
# Conditions: for Estimate (difference between Treatment A and Treatment B), peak-to-peak LSEP amplitude: single oral dose, 24 subjects, cross-over; for Analgesic effectiveness versus placebo (peak-to-peak LSEP amplitudes), in words: FIG. 1 and Table C
# Procedure: General Timing of Study: Each subject was treated on six different treatment days in a randomized, placebo-controlled, double-blind six sequence cross-over study, with each treatment being a different dosage combination of acetaminophen (“APAP”) and ibuprofen (“IBU”) administered in a random order. The total duration of the study per subject was about 46 days. The washout period between the six treatment days was about 7 days. About 2 to 14 days before receiving the first treatment, each subject participated in a one-day, pre-study examination visit.
# On each treatment day, each subject stayed for approximately 7 hours at the treatment center, and followed the schedule set forth below in Table A:
# Method of Pain Induction: A pulsed CO2 laser, which is commercially available from Synrad, Inc., under the tradename, “Synrad Infrared Gas Laser,” model E48−/−26W was used to induce painful stimuli in the desired skin location.
# Evaluation of Pain Relief: Laser induced somatosensory evoked potentials (LSEPs), which served as an objective-quantitative measurement of pain, were generating using Vertex-EEG readings collected using a MUX800/UBV800 Multiplexer and universal bio-amplifier with integrated 15 Hz-impedance measurement, both of which are commercially available from Rimkus Medizintechnik. Twelve artifact free EEG-sections of 3 second duration were averaged in two steps: (1.) 3×4 original sweeps; and (2.) 3×1 averaged sweeps, digitally filtered (Gaussian phase-free software filter on the basis of a Fast Fourier Transform (FFT), with ranges from 1.0 Hz to 12.5 Hz (first step) and 1.5 to 10.0 Hz (second step)). Means were analyzed for a time window of 600 ms after laser stimulation to identify and measure the components of the evoked potentials (latencies and amplitudes). The N1 and P2 components, which are the pain related components of the EEG-signal, were derived as described above and analyzed in accordance with the procedure set forth in Schaffler K., et al., “Analgesic effects of low-dose intravenous orphenadrine in the state of capsaicin hyperalgesia. A randomised, placebo-controlled, double-blind cross-over study using laser somatosensory evoked potentials obtained from capsaicin-irritated skin in healthy volunteers,” 54(10) Arzneimittel-Forschung. 673-9 (2004). The N1-P2-peak-to peak amplitudes as well as the amplitudes of the individual N1 and P2 components were determined from the Vertex-EEG reading, and the correlated pain response was thereby determined in accordance with the procedure generally set forth in Seibel, K., et al., “Comparison of Two Different Preparations of Ibuprofen with Regard to the Time Course of their Analgesic Effect,” 54(8) Arnzeimittel-Forschung 444-51 (2004). The LSEP recording at hour −2:05 served as baseline (=t0). Drug induced analgesia was reflected by an amplitude reduction versus control or comparator treatment.
# According to this procedure, a change in LSEP amplitude of about 1.0 to 3.0 μV was previously determined to be generally sufficient to allow for statistically significant discrimination between, for example, a given active agent vs. placebo, vs. other active agents, and/or vs. different dosages of the same active agent. An amplitude difference in the LSEP that exceeds about 2.0-2.5 μV (in peak-to-peak (PtP) amplitude) and > about 1.00-1.25 μV (for the single N1- and P2-components) was defined as clinically relevant.
# The procedure set forth in Example 1 was independently performed on 24 subjects in a randomized, placebo-controlled, double-blind 6 sequence cross-over study. The six ibuprofen/acetaminophen treatments administered on the treatment days consisted of two white caplets and 4 red tablets comprised of the doses set forth in Table B: […]
# [1] = Treatment B = Placebo, over the treatment period
Structure (SMILES),"Estimate (difference between Treatment A and Treatment B), peak-to-peak LSEP amplitude (Treatment B = APAP250 + IBU300)","Estimate (difference between Treatment A and Treatment B), peak-to-peak LSEP amplitude (Treatment B = APAP500 + IBU200)","Estimate (difference between Treatment A and Treatment B), peak-to-peak LSEP amplitude (Treatment B = APAP750 + IBU100)","Estimate (difference between Treatment A and Treatment B), peak-to-peak LSEP amplitude (Treatment B = IBU400)","Estimate (difference between Treatment A and Treatment B), peak-to-peak LSEP amplitude [1]","Analgesic effectiveness versus placebo (peak-to-peak LSEP amplitudes), in words"
"CC(=O)Nc1ccc(O)cc1 [APAP 1000 mg, acetaminophen]",1.6417,1.5389,2.7487,0.01133,−4.4020,significantly more effective analgesics than the placebo
"CC(C)Cc1ccc(C(C)C(=O)O)cc1 (centres unmarked) [IBU 400 mg, ibuprofen]",–,–,–,–,−4.4134,significantly more effective analgesics than the placebo
